Assay results taken from patent US20240059693A1, “FUSED BICYCLIC PYRAZOLE DERIVATIVES AND METHODS OF USE THEREOF FOR THE TREATMENT OF HERPESVIRUSES” (Merck Sharp & Dohme LLC, priority 2020, published 2024).
Like-named read-outs stand apart in the source and are kept apart here.

Key:
HSV-1 Strain F [1] = experiment: Viral qPCR assay, HSV-1 in MRC5 cells; type: cell-based, Herpes Simplex Virus type 1; details: read-out: HSV1 MRC5 Cell (EC50)
How it was run: (§1)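 EC50 from a 4-parameter fit of viral genome copies, quantified by TaqMan qPCR on proteinase K lysates against a plasmid standard, with or without PPIA normalization. Infected cells (VZV 0.04-0.1 pfu/cell in MeWo/MRC5; HSV-1 0.0005-0.004 pfu/cell in Vero/MRC5) were exposed to 10-point 3-fold dilutions for ~72 h at 37 °C.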

[2] = molecular target: T1, Human cytomegalovirus DNA polymerase (Human cytomegalovirus, UniProt P08546); experiment: HCMV polymerase assay (AlphaLISA); type: biochemical; details: HCMV DNA polymerase 0.2 nM, 60 minutes at 37° C.; read-out: CMV (IC50)
T1 construct: made in house; host or cells: SF21 insect cells (baculovirus vector)
How it was run: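 Baculovirus/SF21-expressed polymerase (HCMV 0.2 nM; VZV 0.4 nM) pre-incubated 30 min at room temperature with compound in HEPES pH 7.5 buffer, then 60 min at 37 °C with 1.6 nM DIG-primer/template, sub-nM to 24 nM dNTPs and 0.8 nM biotin-dUTP. AlphaLISA detection; IC50 from 4-parameter fit.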

HSV-1 Strain F [3] = experiment: Viral qPCR assay, HSV-1 in Vero cells; type: cell-based, Herpes Simplex Virus type 1; details: read-out: HSV1 VERO Cell (EC50)
Procedure: (§2) MRCS cells, Vero cells, and MeWo cells were obtained from ATCC and were maintained at 37° C./5% CO2/90% relative humidity in Minimal Essential Medium with 10% fetal bovine serum, […] L-glutamine, 100 units/ml penicillin and 100 ug/ml streptomycin. Assay plates were prepared by dispensing compounds dissolved in DMSO into wells of 384 well collagen-coated plates using an ECHO acoustic dispenser. Each compound was tested in a 10-point, serial 3-fold dilution. Controls included uninfected cells and infected cells treated only with DMSO. Assays were initiated by mixing selected cells, in suspension, with virus, and dispensing 50 μl/well infected cells to pre-plated compounds. Plates were incubated at 37° C./5% CO2/90% relative humidity for ˜72 hrs to permit genomic replication, and infected cells were lysed by the addition of an equal volume of lysis buffer (10 mM Tris-HCl, pH8, 50 mM KCl, 2 mM MgCl2, 0.45% NP-40, 0.45% Tween-20, and 100 μg/ml proteinase K). An aliquot of the lysate was transferred to a 384-well PCR plate and incubated at 56° C. for 1 hour and then at 95° C. for 10 min. Levels of a viral gene and of the cellular control, PPIA (Thermo Fisher Assay ID=Hs04194521_s1), were measured in separate 10 μL qPCR assays using TaqMan® Gene Expression Master Mix (Applied Biosystems), and an 7900HT Fast Real-Time PCR System with 384-Well Block Module. 7-point, serial 10-fold dilutions of a plasmid standard were run on each plate to generate a standard curve, and genome copies numbers were calculated by plotting experimental Ct onto linear regression of the standard curve. Viral genome copy numbers were normalized by cellular control copy number, and compound effects were normalized to the window defined by the controls. Calculated % effects were fit using a 4-parameter algorithm, and EC50 was reported.
as §2, with “gene” for “gene and of the cellular control, PPIA (Thermo Fisher Assay ID=Hs04194521_s1),”, “in” for “in separate”, “Compound effects on viral” for “Viral”, “number” for “numbers were normalized by cellular control copy number, and compound effects”
(§3) VZV: Strain Street was maintained as an infected cell stock in MRC-5 cells. It was assayed in MeWo or MRCS cells and was used at 0.04-0.1 pfu/cell. The assays were performed in growth medium. Primer-probe set was Thermo Fisher Assay ID=AIPAEXQ. HSV-1: Strain F Street was assayed in Vero or MRCS cells and was used at 0.0005-0.004 pfu/cell in growth medium. Primer-probe set was Thermo Fisher Assay ID=AIBJZIB

VZV [4] = experiment: Viral qPCR assay, VZV in MRC5 cells; type: cell-based, varicella zoster virus; details: read-out: VZV MRC5 Cell (IC50)
How it was run: as §1

HSV2 [5] = experiment: Viral qPCR assay, HSV2 in MRC5 cells; type: cell-based, Herpes Simplex Virus type 2; details: read-out: HSV2 MRC5 Cell (EC50)
How it was run: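 EC50 from a 4-parameter fit of % effect on HSV2 genome copies, quantified by qPCR from a plasmid standard curve and normalized to infected DMSO and uninfected controls, with PPIA correction in one version. Virus-mixed Vero or MRC5 cells met 10-point 3-fold serial compound dilutions for ~72 h at 37 °C.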

[6] = molecular target: T2, varicella zoster virus DNA polymerase (Varicella-zoster virus, UniProt P09252); experiment: VZV polymerase assay (AlphaLISA); type: biochemical; details: VZV DNA polymerase 0.4 nM, 60 minutes at 37° C.
T2 construct: made in house; host or cells: SF21 insect cells (baculovirus vector)
Procedure: Human cytomegalovirus and varicella zoster virus DNA polymerases were expressed via baculovirus vector in SF21 cells and purified. Heterodimeric nucleic acid substrate used in the herpesvirus polymerase reactions was generated by annealing a 59-mer template to a 17-mer digoxigenin-labeled primer. Polymerase (HCMV final concentration of 0.2 nM; VZV final concentration of 0.4 nM) was combined with an inhibitor compound or DMSO in assay buffer (10 mM HEPES, pH 7.5, 25 mM KCl, 25 mM NaCl, 5 mM MgCl2, 5% glycerol, 0.67 mg/ml bovine serum albuminutes, and 1 mM tris(2-carboxyethyl)phosphine), and this mixture was pre-incubated for 30 minutes at room temperature in 384-well microtiter plates. The polymerization reaction was initiated by the addition of template/primer substrate (final concentration: 1.6 nM), and dNTPs (final concentration: 24 nM dCTP, 24 nMdGTP, 16 nM dATP, 16 nM dTTP, and 0.8 nM biotin-dUTP). After 60 minutes incubation at 37° C., reactions were terminated with quench buffer (25 mM HEPES pH 7.5, 100 mM NaCl, 0.25% Tween-20, 12 mM EDTA, and 1 mg/ml bovine serum albumin). Incorporation of biotinylated UTP was detected with 2.5-ug/ml anti-DIG AlphaLISA acceptor beads and 5-10 ug/ml streptavidin AlphaLISA donor beads (Perkin Elmer). Compound effects were normalized to the window defined by the controls (DMSO only and pre-quenched wells) and were fit using a 4-parameter algorithm to report an IC50.

HCMV Strain AD169 = experiment: Viral qPCR assay, HCMV in MRC-5 cells; type: cell-based, Human cytomegalovirus; details: read-out: CMV MRC5 Cell (EC50)
How it was run: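 Viral genome copies, quantified by TaqMan qPCR with a plasmid standard curve after ~72 h infection of MRC-5 cells with AD169 at 0.05-0.1 pfu/cell, served as readout; PPIA normalisation used in one format. Compounds run as 10-point 3-fold series, in standard or 50% FBS media; EC50 by 4-parameter fit.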

HSV2 [7] = experiment: Viral qPCR assay, HSV2 in Vero cells; type: cell-based, Herpes Simplex Virus type 2; details: read-out: HSV2 VERO Cell (EC50)
Procedure: as §2
as §2, with “gene” for “gene and of the cellular control, PPIA (Thermo Fisher Assay ID=Hs04194521_s1),”, “in” for “in separate”, “Compound effects on viral” for “Viral”, “number” for “numbers were normalized by cellular control copy number, and compound effects”

VZV [8] = experiment: Viral qPCR assay, VZV in MeWo cells; type: cell-based, varicella zoster virus; details: read-out: VZV MEWO Cell (IC50)
Procedure: as §2
as §2, with “gene” for “gene and of the cellular control, PPIA (Thermo Fisher Assay ID=Hs04194521_s1),”, “in” for “in separate”, “Compound effects on viral” for “Viral”, “number” for “numbers were normalized by cellular control copy number, and compound effects”
as §3

[9] = Human alphaherpesvirus 1, MRC5, 72 h
[10] = Human alphaherpesvirus 1, Vero, 72 h
[11] = Human alphaherpesvirus 3, MRC5, 72 h
[12] = Human alphaherpesvirus 2, MRC5, 72 h
[13] = Human betaherpesvirus 5, AD169, MRC5, 72 h
[14] = Human alphaherpesvirus 2, Vero, 72 h
[15] = Human alphaherpesvirus 3, ~72 hrs

T1 sequence (P08546 whole entry): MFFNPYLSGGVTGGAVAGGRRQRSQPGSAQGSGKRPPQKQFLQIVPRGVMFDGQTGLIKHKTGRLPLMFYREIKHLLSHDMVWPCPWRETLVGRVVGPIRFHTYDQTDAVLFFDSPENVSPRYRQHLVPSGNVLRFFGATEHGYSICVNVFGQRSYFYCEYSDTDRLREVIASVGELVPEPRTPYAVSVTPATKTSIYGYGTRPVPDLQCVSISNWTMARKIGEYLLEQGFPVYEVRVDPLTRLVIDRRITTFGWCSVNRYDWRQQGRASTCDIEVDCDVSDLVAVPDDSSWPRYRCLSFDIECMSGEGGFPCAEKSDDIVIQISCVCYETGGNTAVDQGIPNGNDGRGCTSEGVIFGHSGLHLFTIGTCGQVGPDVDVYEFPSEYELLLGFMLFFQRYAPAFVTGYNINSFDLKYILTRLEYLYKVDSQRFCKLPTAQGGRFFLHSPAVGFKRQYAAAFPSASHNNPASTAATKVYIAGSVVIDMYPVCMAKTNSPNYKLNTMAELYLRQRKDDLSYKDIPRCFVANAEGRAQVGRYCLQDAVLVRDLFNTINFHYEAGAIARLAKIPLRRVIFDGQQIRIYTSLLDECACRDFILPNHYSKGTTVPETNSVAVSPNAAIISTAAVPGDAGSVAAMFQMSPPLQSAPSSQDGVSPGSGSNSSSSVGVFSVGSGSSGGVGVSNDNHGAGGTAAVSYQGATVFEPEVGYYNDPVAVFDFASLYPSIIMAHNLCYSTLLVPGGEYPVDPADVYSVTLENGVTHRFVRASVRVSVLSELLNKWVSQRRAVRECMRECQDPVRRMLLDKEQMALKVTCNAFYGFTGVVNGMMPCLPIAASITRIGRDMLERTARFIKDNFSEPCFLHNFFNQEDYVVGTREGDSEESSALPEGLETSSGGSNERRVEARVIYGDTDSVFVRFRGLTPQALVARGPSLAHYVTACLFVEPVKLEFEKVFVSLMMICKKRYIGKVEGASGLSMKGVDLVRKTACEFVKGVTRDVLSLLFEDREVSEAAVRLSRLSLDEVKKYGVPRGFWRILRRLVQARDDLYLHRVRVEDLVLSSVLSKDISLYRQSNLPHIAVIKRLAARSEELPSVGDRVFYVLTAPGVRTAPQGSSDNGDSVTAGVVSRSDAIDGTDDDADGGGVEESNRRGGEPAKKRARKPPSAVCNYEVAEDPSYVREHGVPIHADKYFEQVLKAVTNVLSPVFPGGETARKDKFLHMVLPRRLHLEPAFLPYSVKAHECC
T2 sequence (P09252 whole entry): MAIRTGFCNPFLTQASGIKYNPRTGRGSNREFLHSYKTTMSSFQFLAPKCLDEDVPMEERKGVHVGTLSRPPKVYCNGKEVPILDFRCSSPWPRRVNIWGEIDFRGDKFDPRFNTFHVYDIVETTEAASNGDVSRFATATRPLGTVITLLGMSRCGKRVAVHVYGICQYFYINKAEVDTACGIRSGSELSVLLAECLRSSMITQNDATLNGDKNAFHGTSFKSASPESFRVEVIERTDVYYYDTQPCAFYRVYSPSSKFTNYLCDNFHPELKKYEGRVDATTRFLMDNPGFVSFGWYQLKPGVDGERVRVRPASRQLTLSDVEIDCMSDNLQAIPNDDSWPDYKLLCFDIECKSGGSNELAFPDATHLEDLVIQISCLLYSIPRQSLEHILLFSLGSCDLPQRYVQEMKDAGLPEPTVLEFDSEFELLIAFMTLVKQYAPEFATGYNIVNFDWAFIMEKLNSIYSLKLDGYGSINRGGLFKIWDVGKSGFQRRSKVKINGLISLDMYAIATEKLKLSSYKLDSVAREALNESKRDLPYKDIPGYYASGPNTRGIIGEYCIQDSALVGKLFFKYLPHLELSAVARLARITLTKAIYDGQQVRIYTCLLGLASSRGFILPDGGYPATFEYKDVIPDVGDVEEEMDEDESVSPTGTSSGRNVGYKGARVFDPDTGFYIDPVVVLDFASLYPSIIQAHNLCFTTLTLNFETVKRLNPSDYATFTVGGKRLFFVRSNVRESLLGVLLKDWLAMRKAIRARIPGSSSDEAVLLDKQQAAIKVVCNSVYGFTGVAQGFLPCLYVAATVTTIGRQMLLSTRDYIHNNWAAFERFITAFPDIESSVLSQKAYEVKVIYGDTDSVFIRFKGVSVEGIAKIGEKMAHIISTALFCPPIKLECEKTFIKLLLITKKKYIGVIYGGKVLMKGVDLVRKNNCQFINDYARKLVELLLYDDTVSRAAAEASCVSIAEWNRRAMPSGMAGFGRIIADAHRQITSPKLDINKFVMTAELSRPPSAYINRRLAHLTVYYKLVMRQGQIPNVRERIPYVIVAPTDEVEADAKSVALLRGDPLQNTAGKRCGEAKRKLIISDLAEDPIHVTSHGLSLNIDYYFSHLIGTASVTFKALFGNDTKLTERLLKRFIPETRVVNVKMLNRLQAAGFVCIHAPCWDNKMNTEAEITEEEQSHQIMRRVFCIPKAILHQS

Row | Structure (SMILES) | IC50 [2] | EC50 (HSV-1 Strain F [3]; [10]) | IC50 [6] | EC50 (HSV2 [7]; [14]) | IC50 (VZV [8]; [15]) | EC50 (HSV-1 Strain F [3]; ~72 hrs) | EC50 (HSV2 [7]; ~72 hrs) | IC50 (VZV [8]; ~72 hrs) | EC50 (HSV-1 Strain F [1]; [9]) | IC50 (VZV [4]; [11]) | EC50 (HSV2 [5]; [12]) | EC50 (HCMV Strain AD169; [13]) | EC50 (HSV-1 Strain F [1]; ~72 hrs) | IC50 (VZV [4]; ~72 hrs) | EC50 (HSV2 [5]; ~72 hrs) | EC50 (HCMV Strain AD169; MRC5 cells, ~72 hrs)
1 | [2H]C([2H])([2H])n1nc(C(=O)NCc2ccc(Cl)cc2)c2c1CN(C[C@H]1CCC(=O)N1)C2 [Compound 59] | 70.6 nM | 1370 nM | 48.6 nM | 3540 nM |  |  |  |  | 7100 nM | 5210 nM | 3180 nM | 714 nM |  |  |  | 
2 | CN(CCn1nc(C(=O)NCc2ccc(Cl)cc2)c2c1CN(C[C@H]1CCC(=O)N1)C2)C(=O)C1CCC1 [Compound 3] | 8.75 nM | 33300 nM | 3.45 nM | 56900 nM | 342 nM |  |  |  |  |  |  | 1260 nM |  |  |  | 
3 | O=C1CC[C@H](CN2Cc3c(C(=O)NCc4ccc(Cl)cc4)nn(CCC4CCOC4)c3C2)N1 (stereo partly drawn) [Compound 38] | 34.6 nM | 2580 nM | 15.6 nM | 5830 nM | 500 nM |  |  |  |  |  |  | 1240 nM |  |  |  | 
4 | O=C1CC[C@H](CN2Cc3c(C(=O)NCc4ccc(Cl)cc4)nn(CC4CCCO4)c3C2)N1 (stereo partly drawn) [Compound 29] | 186 nM | 5320 nM | 57.8 nM | 8930 nM | 258 nM |  |  |  |  |  |  | 3680 nM |  |  |  | 
5 | Cn1nc(C(=O)NCc2ccc(Cl)cc2)c2c1CN(C[C@@H]1CC(F)C(=O)N1)C2 (stereo partly drawn) [Compound 80] | 168 nM |  | 102 nM |  |  | 1930 nM | 2310 nM |  |  |  |  |  | 4000 nM | 3890 nM | 2830 nM | 2780 nM

Second part, led by results:

Row | IC50 [2] | EC50 (HSV-1 Strain F [3]; [10]) | IC50 [6] | EC50 (HSV2 [7]; [14]) | IC50 (VZV [8]; [15]) | EC50 (HSV-1 Strain F [3]; ~72 hrs) | EC50 (HSV2 [7]; ~72 hrs) | IC50 (VZV [8]; ~72 hrs) | Structure (SMILES) | EC50 (HSV-1 Strain F [1]; [9]) | IC50 (VZV [4]; [11]) | EC50 (HSV2 [5]; [12]) | EC50 (HCMV Strain AD169; [13]) | EC50 (HSV-1 Strain F [1]; ~72 hrs) | IC50 (VZV [4]; ~72 hrs) | EC50 (HSV2 [5]; ~72 hrs) | EC50 (HCMV Strain AD169; MRC5 cells, ~72 hrs)
6 | 14.1 nM | 381 nM | 5.68 nM | 165 nM |  |  |  |  | Cn1nc(C(=O)NCc2ccc(Cl)cc2)c2c1CN(C[C@H]1CCC(=O)N1)C2 [Compound 32] | 653 nM | 418 nM | 500 nM | 420 nM |  |  |  | 
7 | 120 nM | 536 nM | 18.9 nM | 712 nM | 602 nM |  |  |  | CC(C)(O)Cn1nc(C(=O)NCc2ccc(Cl)cc2)c2c1CN(C[C@H]1CCC(=O)N1)C2 [Compound 58] |  |  |  | 1230 nM |  |  |  | 
8 | 11.3 nM | 99000 nM | 11.5 nM | 99000 nM | 484 nM |  |  |  | CC(C)C(=O)NCCn1nc(C(=O)NCc2ccc(Cl)cc2)c2c1CN(C[C@H]1CCC(=O)N1)C2 [Compound 25] | 17400 nM | 29000 nM | 16400 nM | 970 nM |  |  |  | 
9 | 245 nM | 12000 nM | 65.9 nM | 16400 nM | 2350 nM |  |  |  | CC1(Cn2nc(C(=O)NCc3ccc(Cl)cc3)c3c2CN(C[C@H]2CCC(=O)N2)C3)COC1 [Compound 30] |  |  |  | 5750 nM |  |  |  | 
10 | 87.4 nM |  | 14.9 nM |  |  | 991 nM | 584 nM |  | CC(C)N1CC(n2nc(C(=O)NCc3ccc(Cl)cc3)c3c2CC(C[C@H]2CCC(=O)N2)C3)C1 (stereo partly drawn) [Compound 134] |  |  |  |  | 1170 nM | 832 nM | 545 nM | 970 nM
11 | 94.1 nM |  | 26.9 nM |  |  | 5600 nM | 13100 nM | 478 nM | O=C1CC[C@@H](CN2Cc3c(C(=O)NCc4ccc(Cl)cc4)nn(C4CCC(F)(F)C4)c3C2)N1 (single isomer, unassigned) [Compound 55] |  |  |  |  |  |  |  | 2710 nM
12 | 85.8 nM | 1620 nM | 19.7 nM | 1060 nM |  |  |  |  | O=C1CC[C@H](CC2Cc3c(C(=O)NCc4ccc(Cl)cc4)nn(CCN4CCOCC4)c3C2)N1 (stereo partly drawn) [Compound 133] | 1190 nM | 1210 nM | 557 nM | 805 nM |  |  |  | 
13 | 89.3 nM | 1520 nM | 26.1 nM | 1970 nM |  |  |  |  | CC(C)CN1CC(n2nc(C(=O)NCc3ccc(Cl)cc3)c3c2CC(C[C@H]2CCC(=O)N2)C3)C1 (stereo partly drawn) [Compound 135] | 749 nM | 633 nM | 589 nM | 769 nM |  |  |  | 
